The target of the test is T1, BrabA.11339.a (Brucella abortus, UniProt Q2YQ74).
T1 construct: gene BAB1_1016
As to conditions: Mn2+ dinuclear active site at dimer interface.

The structures appear in SMILES notation. Where two headings read alike, the source gives them in different places.

T1 sequence (Q2YQ74 2-272 limits assumed): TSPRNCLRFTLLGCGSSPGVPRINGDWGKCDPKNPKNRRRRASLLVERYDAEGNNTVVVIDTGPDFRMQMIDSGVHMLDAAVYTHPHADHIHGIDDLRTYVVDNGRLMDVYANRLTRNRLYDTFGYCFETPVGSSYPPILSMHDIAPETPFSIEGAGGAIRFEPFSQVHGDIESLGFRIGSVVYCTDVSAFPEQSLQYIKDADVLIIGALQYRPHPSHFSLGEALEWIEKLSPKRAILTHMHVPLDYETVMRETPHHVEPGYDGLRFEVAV

Consider `Nc1ncnc2c1ncn2[C@@H]1O[C@H](COP(=O)(O)O)[C@@H](O)[C@H]1O` [AMP], for which the X-ray crystallography result (AMP found in cocrystals grown with 1 mM AMPPNP and 2 mM MgCl2 (1.7 A and 1.6 A)) was “very solid electron density could be observed for GMP and AMP, respectively”.
For the compound `Nc1nc2c(ncn2[C@@H]2O[C@H](COP(=O)(O)O)[C@@H](O)[C@H]2O)c(=O)[nH]1` [GMP], the X-ray crystallography result (GMP copurified from E. coli, partially occupied (3md7, 1.27 A), full density in cocrystal with 1 mM GMPPNP and 2 mM MgCl2 (3py6, 1.7 A)) was “In the native structure, a partially occupied GMP molecule can be observed in the immediate proximity”.

The values above are taken from article PMC3169410 (Acta Crystallographica Section F: Structural Biology and …, 2011).
